According to ChEMBL document CHEMBL1125697, “Synthesis and pharmacological examination of 1-(3-methoxy-4-methylphenyl)-2-aminopropane and 5-methoxy-6-methyl-2-aminoindan: similarities to 3,4-(methylenedioxy)methamphetamine (MDMA)” (J Med Chem, 1991):
Several values for one entry are separate records, joined by “and”; a condition that tells them apart may be missing. Equal entries are not always repeated.

Experiments:
Rattus norvegicus [1] = species on record: Rattus norvegicus; assay: Effective dose was evaluated for drug discrimination in I-trained rats; assay type: functional
Rattus norvegicus [2] = assay: Momoamine and metabolic levels observed 1 week following acute dosing against at a dose of 20 mg/kg Frontal cortex DOPAC; assay type: ADME, organism-based; set-up: dose 20 mg/kg; conditions: in vivo, 168 h
Rattus norvegicus [3] = assay: Momoamine and metabolic levels observed 1 week following acute dosing against at a dose of 20 mg/kg Frontal cortex HVA; assay type: ADME, organism-based; set-up: dose 20 mg/kg; conditions: in vivo, 168 h
Rattus norvegicus [4] = assay: Momoamine and metabolic levels observed 1 week following acute dosing against at a dose of 20 mg/kg Frontal cortex NE; assay type: ADME, organism-based; set-up: dose 20 mg/kg; conditions: in vivo, 168 h
Rattus norvegicus [5] = assay: Momoamine and metabolic levels observed 1 week following acute dosing against at a dose of 20 mg/kg Frontal cortex DA; assay type: ADME, organism-based; set-up: dose 20 mg/kg; conditions: in vivo, 168 h
Rattus norvegicus [6] = assay: Momoamine and metabolic levels observed 1 week following acute dosing against at a dose of 10 mg/kg Hippocampus 5-HT; assay type: ADME, organism-based; set-up: dose 10 mg/kg; conditions: in vivo, 168 h
Rattus norvegicus [7] = assay: Momoamine and metabolic levels observed 1 week following acute dosing against at a dose of 10 mg/kg Hippocampus NE; assay type: ADME, organism-based; set-up: dose 10 mg/kg; conditions: in vivo, 168 h
Rattus norvegicus [8] = assay: Momoamine and metabolic levels observed 1 week following acute dosing at a dose of 10 mg/kg Frontal cortex 5-HIAA; assay type: ADME, organism-based; set-up: dose 10 mg/kg; conditions: in vivo, 168 h
Rattus norvegicus [9] = assay: Momoamine and metabolic levels observed 1 week following acute dosing at a dose of 10 mg/kg Frontal cortex 5-HT; assay type: ADME, organism-based; set-up: dose 10 mg/kg; conditions: in vivo, 168 h
Rattus norvegicus [10] = assay: Momoamine and metabolic levels observed 1 week following acute dosing at a dose of 10 mg/kg Frontal cortex DA; assay type: ADME, organism-based; set-up: dose 10 mg/kg; conditions: in vivo, 168 h
Rattus norvegicus [11] = assay: Momoamine and metabolic levels observed 1 week following acute dosing at a dose of 10 mg/kg Frontal cortex DOPAC; assay type: ADME, organism-based; set-up: dose 10 mg/kg; conditions: in vivo, 168 h
Rattus norvegicus [12] = assay: Momoamine and metabolic levels observed 1 week following acute dosing against at a dose of 20 mg/kg Hippocampus NE; assay type: ADME, organism-based; set-up: dose 20 mg/kg; conditions: in vivo, 168 h
Rattus norvegicus [13] = assay: Momoamine and metabolic levels observed 2 weeks following sub-acute dosing against Frontal cortex 5-HIAA; assay type: ADME, organism-based; conditions: in vivo, 336 h
Rattus norvegicus [14] = assay: Momoamine and metabolic levels observed 2 weeks following sub-acute dosing against Frontal cortex 5-HT; assay type: ADME, organism-based; conditions: in vivo, 336 h
Rattus norvegicus [15] = assay: Momoamine and metabolic levels observed 2 weeks following sub-acute dosing against Frontal cortex DA; assay type: ADME, organism-based; conditions: in vivo, 336 h
Rattus norvegicus [16] = assay: Momoamine and metabolic levels observed 2 weeks following sub-acute dosing against Frontal cortex DOPAC; assay type: ADME, organism-based; conditions: in vivo, 336 h
Rattus norvegicus [17] = assay: Momoamine and metabolic levels observed 2 weeks following sub-acute dosing against Frontal cortex NE; assay type: ADME, organism-based; conditions: in vivo, 336 h
Rattus norvegicus [18] = assay: Momoamine and metabolic levels observed 2 weeks following sub-acute dosing against Hippocampus 5-HIAA; assay type: ADME, organism-based; conditions: in vivo, 336 h
Rattus norvegicus [19] = assay: Momoamine and metabolic levels observed 2 weeks following sub-acute dosing against Hippocampus 5-HT; assay type: ADME, organism-based; conditions: in vivo, 336 h
Rattus norvegicus [20] = assay: Momoamine and metabolic levels observed 1 week following acute dosing against at a dose of 20 mg/kg Frontal cortex 5-HIAA; assay type: ADME, organism-based; set-up: dose 20 mg/kg; conditions: in vivo, 168 h
Rattus norvegicus [21] = assay: Momoamine and metabolic levels observed 1 week following acute dosing against at a dose of 20 mg/kg Frontal cortex 5-HT; assay type: ADME, organism-based; set-up: dose 20 mg/kg; conditions: in vivo, 168 h
Rattus norvegicus [22] = assay: Momoamine and metabolic levels observed 1 week following acute dosing at a dose of 10 mg/kg Frontal cortex HVA; assay type: ADME, organism-based; set-up: dose 10 mg/kg; conditions: in vivo, 168 h
Rattus norvegicus [23] = assay: Momoamine and metabolic levels observed 1 week following acute dosing at a dose of 10 mg/kg Frontal cortex NE; assay type: ADME, organism-based; set-up: dose 10 mg/kg; conditions: in vivo, 168 h
Rattus norvegicus [24] = assay: Momoamine and metabolic levels observed 1 week following acute dosing at a dose of 10 mg/kg Hippocampus 5-HIAA; assay type: ADME, organism-based; set-up: dose 10 mg/kg; conditions: in vivo, 168 h
Rattus norvegicus [25] = assay: Momoamine and metabolic levels observed at 3 hr postdrug against at a dose of 20 mg/kg Hippocampus NE; assay type: ADME, organism-based; set-up: dose 20 mg/kg; conditions: in vivo
Rattus norvegicus [26] = assay: Momoamine and metabolic levels observed at 3 hr postdrug against at a dose of 20 mg/kg Frontal cortex 5-HT; assay type: ADME, organism-based; set-up: dose 20 mg/kg; conditions: in vivo
Rattus norvegicus [27] = assay: Momoamine and metabolic levels observed at 3 hr postdrug against at a dose of 20 mg/kg Frontal cortex DA; assay type: ADME, organism-based; set-up: dose 20 mg/kg; conditions: in vivo
Rattus norvegicus [28] = assay: Momoamine and metabolic levels observed at 3 h postdrug against at a dose of 20 mg/kg Frontal cortex DOPAC; assay type: ADME, organism-based; set-up: dose 20 mg/kg; conditions: in vivo
Rattus norvegicus [29] = assay: Momoamine and metabolic levels observed at 3 hr postdrug against at a dose of 20 mg/kg Frontal cortex HVA; assay type: ADME, organism-based; set-up: dose 20 mg/kg; conditions: in vivo
Rattus norvegicus [30] = assay: Momoamine and metabolic levels observed at 3 hr postdrug against at a dose of 20 mg/kg Frontal cortex NE; assay type: ADME, organism-based; set-up: dose 20 mg/kg; conditions: in vivo
Rattus norvegicus [31] = assay: Momoamine and metabolic levels observed at 3 hr postdrug against at a dose of 20 mg/kg Hippocampus 5-HIAA; assay type: ADME, organism-based; set-up: dose 20 mg/kg; conditions: in vivo
Rattus norvegicus [32] = assay: Momoamine and metabolic levels observed 2 weeks following sub-acute dosing against Hippocampus NE; assay type: ADME, organism-based; conditions: in vivo, 336 h
Rattus norvegicus [33] = assay: Momoamine and metabolic levels observed 1 week following acute dosing against at a dose of 20 mg/kg Hippocampus 5-HIAA; assay type: ADME, organism-based; set-up: dose 20 mg/kg; conditions: in vivo, 168 h
Rattus norvegicus [34] = assay: Momoamine and metabolic levels observed at 3 hr postdrug against at a dose of 20 mg/kg Frontal cortex 5-HIAA; assay type: ADME, organism-based; set-up: dose 20 mg/kg; conditions: in vivo
Rattus norvegicus [35] = assay: Momoamine and metabolic levels observed 1 week following acute dosing against at a dose of 20 mg/kg Hippocampus 5-HT; assay type: ADME, organism-based; set-up: dose 20 mg/kg; conditions: in vivo, 168 h
Rattus norvegicus [36] = assay: Effective dose was evaluated for drug discrimination in I-trained rats, when given at a dose of 0.25 mg/kg; assay type: functional; conditions: Rattus norvegicus; read-out: ED50
Rattus norvegicus [37] = assay: Effective dose was evaluated for drug discrimination in I-trained rats, when given at a dose of 1.16 micro mol/kg; assay type: functional
Rattus norvegicus [38] = assay: Effective dose was evaluated for drug discrimination in S-trained rats, when given at a dose of 0.25 umol/kg; assay type: functional
Rattus norvegicus [39] = assay: Effective dose was evaluated for drug discrimination in S-trained rats, when given at a dose of 0.25 mg/kg; assay type: functional
Rattus norvegicus [40] = species on record: Rattus norvegicus; assay: Compound was evaluated for the uptake inhibition of [3H]-5-HT in rats; assay type: functional
Rattus norvegicus [41] = assay: Percentage of non disrupted rats that selected the drug lever, when given at a dose of 0.25 mg/kg; assay type: functional
Rattus norvegicus [42] = assay: Percentage of non disrupted rats that selected the drug lever, when given at a dose of 0.25 mg/kg in LSD-Trained rats; assay type: functional
Rattus norvegicus [43] = assay: Percentage of non disrupted rats that selected the drug lever, when given at a dose of 0.25 mg/kg in S-Amphetamine-Trained rats; assay type: functional
Rattus norvegicus [44] = assay: Percentage of non disrupted rats that selected the drug lever, when given at a dose of 0.50 mg/kg in LSD-Trained rats; assay type: functional; conditions: dose 0.5 mg/kg
Rattus norvegicus [45] = assay: Percentage of non disrupted rats that selected the drug lever, when given at a dose of 0.5 mg/kg; assay type: functional
Rattus norvegicus [46] = assay: Percentage of non disrupted rats that selected the drug lever, when given at a dose of 1.00 mg/kg in S-Amphetamine-Trained rats; assay type: functional
Rattus norvegicus [47] = assay: Percentage of non disrupted rats that selected the drug lever, when given at a dose of 2.00 mg/kg; assay type: functional
Rattus norvegicus [48] = assay: Percentage of non disrupted rats that selected the drug lever, when given at a dose of 2.00 mg/kg in LSD-Trained rats; assay type: functional
Rattus norvegicus [49] = assay: Percentage of non disrupted rats that selected the drug lever, when given at a dose of 0.5 mg/kg in S-Amphetamine-Trained rats; assay type: functional
Rattus norvegicus [50] = assay: Percentage of non disrupted rats that selected the drug lever, when given at a dose of 1.00 mg/kg; assay type: functional
[51] = target: Sodium-dependent serotonin transporter (Rattus norvegicus) (UniProt P31652); assay: Number of uptake sites for [3H]paroxetine receptor binding after sub-acute dosing against Frontal cortex; assay type: tissue-based
Chain of Sodium-dependent serotonin transporter (Rattus norvegicus) (P31652 whole entry): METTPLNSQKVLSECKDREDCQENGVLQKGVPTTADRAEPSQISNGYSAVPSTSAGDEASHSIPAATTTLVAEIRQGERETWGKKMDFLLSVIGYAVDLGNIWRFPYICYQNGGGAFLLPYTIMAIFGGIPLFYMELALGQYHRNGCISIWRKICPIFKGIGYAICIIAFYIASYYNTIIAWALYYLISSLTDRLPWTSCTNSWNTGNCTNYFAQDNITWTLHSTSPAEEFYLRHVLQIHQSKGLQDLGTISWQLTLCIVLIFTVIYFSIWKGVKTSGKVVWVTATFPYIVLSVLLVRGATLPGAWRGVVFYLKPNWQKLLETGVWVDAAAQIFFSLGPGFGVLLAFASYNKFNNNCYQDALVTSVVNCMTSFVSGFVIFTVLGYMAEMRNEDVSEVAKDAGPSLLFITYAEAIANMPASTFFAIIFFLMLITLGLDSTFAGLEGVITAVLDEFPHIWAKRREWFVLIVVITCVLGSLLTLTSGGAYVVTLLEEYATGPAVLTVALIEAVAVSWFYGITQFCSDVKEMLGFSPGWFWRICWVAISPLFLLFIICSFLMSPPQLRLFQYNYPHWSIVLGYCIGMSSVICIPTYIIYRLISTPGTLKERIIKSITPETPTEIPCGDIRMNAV

[52] = target: Sodium-dependent serotonin transporter (Rattus norvegicus) (UniProt P31652); assay: Number of uptake sites for [3H]paroxetine receptor binding after sub-acute dosing against Hippocampus
Rattus norvegicus [53] = assay: Momoamine and metabolic levels observed 2 weeks following sub-acute dosing against Frontal cortex HVA; assay type: ADME, organism-based; conditions: in vivo, 336 h

In the case of CC[C@@H](Cc1ccc2c(c1)OCO2)NC, the ED50 (Rattus norvegicus [1]) is reported as 0.79 mg/kg and 3.25 µmol/kg.

In the case of CCN(CC)C(=O)[C@@H]1C=C2c3cccc4[nH]cc(c34)C[C@H]2N(C)C1 [LYSERGIDE], the ED50 (Rattus norvegicus [1]) is reported as 0.025 mg/kg and 0.058 µmol/kg.

COc1cc(CC(C)N)ccc1C (stereo unspecified) showed a Metabolite level (Rattus norvegicus [2]) of 45, a Metabolite level (Rattus norvegicus [3]) of 85 and a Metabolite level (Rattus norvegicus [4]) of 487. It also gave a Metabolite level (Rattus norvegicus [5]) of 86, a Metabolite level (Rattus norvegicus [6]) of 255 and a Metabolite level (Rattus norvegicus [7]) of 620. It also gave a Metabolite level (Rattus norvegicus [8]) of 233, a Metabolite level (Rattus norvegicus [9]) of 281 and a Metabolite level (Rattus norvegicus [10]) of 88. For the same molecule, the Metabolite level (Rattus norvegicus [11]) was 39, the Metabolite level (Rattus norvegicus [12]) was 578 and the Metabolite level (Rattus norvegicus [13]) was 253. For the same molecule, the Metabolite level (Rattus norvegicus [14]) was 411, the Metabolite level (Rattus norvegicus [15]) was 83 and the Metabolite level (Rattus norvegicus [16]) was 74. For the same molecule, the Metabolite level (Rattus norvegicus [17]) was 573, the Metabolite level (Rattus norvegicus [18]) was 503 and the Metabolite level (Rattus norvegicus [19]) was 392. The Metabolite level (Rattus norvegicus [20]) was 229, the Metabolite level (Rattus norvegicus [21]) was 316 and the Metabolite level (Rattus norvegicus [22]) was 70. For the same molecule, the Metabolite level (Rattus norvegicus [23]) was 394, the Metabolite level (Rattus norvegicus [24]) was 460 and the Metabolite level (Rattus norvegicus [25]) was 641. It also gave a Metabolite level (Rattus norvegicus [26]) of 212, a Metabolite level (Rattus norvegicus [27]) of 120 and a Metabolite level (Rattus norvegicus [28]) of 46. It also gave a Metabolite level (Rattus norvegicus [29]) of 138, a Metabolite level (Rattus norvegicus [30]) of 585 and a Metabolite level (Rattus norvegicus [31]) of 260. The Metabolite level (Rattus norvegicus [32]) was 724, the Metabolite level (Rattus norvegicus [33]) was 430 and the Metabolite level (Rattus norvegicus [34]) was 139. It also gave a Metabolite level (Rattus norvegicus [35]) of 431, an ED50 (Rattus norvegicus [36]) of 0.59 mg/kg and an ED50 (Rattus norvegicus [37]) of 2.74 µmol/kg. It also gave an ED50 (Rattus norvegicus [38]) of 2.16 µmol/kg, an ED50 (Rattus norvegicus [39]) of 0.47 mg/kg and an IC50 (Rattus norvegicus [40]) of 0.136 µM. It also gave an SDL (Rattus norvegicus [41]) of 11%, an SDL (Rattus norvegicus [42]) of 0% and an SDL (Rattus norvegicus [43]) of 0%. For the same molecule, the SDL (Rattus norvegicus [44]) was 38%, the SDL (Rattus norvegicus [45]) was 50% and the SDL (Rattus norvegicus [46]) was 0%. The SDL (Rattus norvegicus [47]) was 100%, the SDL (Rattus norvegicus [48]) was 75% and the SDL (Rattus norvegicus [49]) was 0%. It also gave an SDL (Rattus norvegicus [50]) of 63%, a No. of uptake sites [51] of 12.3 and a No. of uptake sites [52] of 14.9. It also gave a Metabolite level (Rattus norvegicus [53]) of 62.

CNC(C)Cc1ccc2c(c1)OCO2 (stereo unspecified) [MIDOMAFETAMINE] was tested, and the ED50 (Rattus norvegicus [1]) was 0.64 mg/kg and 2.79 µmol/kg.

COc1cc(CC(C)N)c(OC)cc1C (stereo unspecified) [DOM] gave an IC50 (Rattus norvegicus [40]) of 10.7 µM.
